Laboratory results published in patent publication US20230302159A1, “COMPOUNDS AND COMPOSITIONS FOR TUMOR DETECTION AND SURGICAL GUIDANCE” (Cornell University, priority 2020, published 2023).

Key:
[1] = Solubility of the CypH dyes (Table 1); type: physicochemical; details: organic solvent or mixture; in EtOH; read-out: Solubility
Experimental: (§1) Characterization: All new CypH dyes were characterized by proton NMR and mass spectrometry to confirm identity. NMR data was consistent with the structure and mass spectrometry results gave the expected mass of the dye±0.5 amu. An HPLC method was developed (see below) and used to assess dye purity. […] Retention times on the column generally correlated with lipophilicity of the dyes with water soluble dyes containing sulfate groups eluting out earlier (@10.6 min for CypH-3, 6, 9) than CypH-1 (@11.9 min) and the more lipophilic dyes later. Optical properties of the dyes, acid dissociation constants and solubilities were also determined. Synthetic intermediates were also characterized by proton NMR.

[2] = Fluorescence properties of the CypH dyes at pH 5.0 and pH 7.5 (Table 2); type: physicochemical; details: for Ratio Intensity pH 5.0/7.5: fluorescence intensity pH 5.0 over pH 7.5
Text: The excitation and emission maxima of CypH-1 are 760 and 777 nm, respectively. The signal intensity ratio of pH 5 over pH 7.5 was about 10. The meso-bridge ring size, lipophilicity and electro-density of CypH-1 was modified to provide better optical property. […] The best compound from this group was CypH-5 whose fluorescence ratio of pH 5.0/pH 7.5 was increased to 22. Based on this initial structure and property relationship, the second round of 10 new analogs were designed using CypH-5 as the core, focusing on modifying the electron density on the aniline ring and the indolinium ring. Various alkyl groups, such as methyl, ethyl, propyl, isopropyl and their combinations, were applied to these two positions.
The CypH analogs with other longer alkyl chains had much lower background fluorescence. […] Among them, CypH-11, which has a methyl isopropyl aniline and an isopropyl group on the indolinium ring, gave a 112-fold enhancement in fluorescence signal. CypH-11 has absorbance and emission maxima at 766 nm and 785 nm, respectively (FIG. 4) and was selected as the lead compound (vide infra).

[3] = pKa measurement by fluorescence intensity in the pH range 2.0-11.0 (plate reader); type: physicochemical; details: for pKa: 2 μM in 20 mM phosphate-buffered solution, pH 2.0-11.0, λex=725 nm, λem=785 nm; for pH dependency of fluorescence: different pH solutions
Experimental: (A) The structure of CypH-1 (B) Schematic diagram of the fluorescence activation of CypH-11 by protonation. […] Their fluorescence intensity in the pH range (2.0-11.0) was measured (λex=725 nm and λem=785 nm) using a plate reader. (D) Fluorescence image of CypH-11 and CypH-1 in a 96-well plate at different pHs.
Spectroscopic analysis. Stock solutions (1 mM in DMSO) of CypH-11, CypH-1, and Cy7 were stored at a −30° C. freezer and used for the following experiments. For the pKa measurement, the respective compound was diluted in 20 mM phosphate-buffered solution (PBS, pH 2.0-11.0) to a final concentration of 2 μM. The fluorescence intensity (λex=725 nm and λcm=785 nm) was measured on a plate reader (Tecan Infinite M1000 Pro), and the fluorescence images were recorded with a fluorescence imaging system (Bruker In-vivo F Pro). For the quantum yield measurement, indocyanine green (ICG, Φ=1.2% in water) was used as the standard compound. The respective compound (0.4, 0.8, 1.2, 1.6, and 2.0 μM) in PBS solutions (pH=4.0 and pH=7.4) was measured using a Cary 60 UV-Vis spectrophotometer and Cary Eclipse fluorescence spectrophotometer (Agilent). The slope of fluorescence vs absorbance was compared with that of ICG to calculate the relative quantum yield.

[4] = Optical properties of the CypH dyes: absorbance maximum and extinction coefficient in EtOH (Table 1); type: physicochemical; details: for Ex Coeff (M^−1cm^−1) @ Abs Max: at absorbance maximum
Experimental: as §1

[5] = system: RFP-ovsaho tumors; assay: In vivo imaging study, spray on about 2 mm subcutaneous RFP-ovsaho tumors (Example 1); parameters: species or system mice; details: for tumor contrast after spray: 2 μM sprayed, no washing
Experimental: In vivo imaging study. The animals inoculated with RFP-ovsaho cells in flank were used for the imaging study. To imitate the morphology of metastasized human ovarian cancer, the tumor size was controlled to 2 mm. The skin was removed prior to the spray of dye (2 μM, in saline). The tumor areas were sprayed and imaged using Cy7 filter set at different time points. RFP images were also acquired for tumor co-registration. The contrast ratio was calculated by [signal of tumor]/[signal of adjacent muscle]. Following the in vitro and cellular validation, we thought that the best candidate, CypH-11, which has excellent fluorescence property in different pH and in cells, could be an ideal agent to augment the detection of small cancerous lesions otherwise unnoticeable to surgeons. To verify the presumption, RFP positive ovsaho ovarian cancer cells were subcutaneously inoculated in mice. When tumors were about 2 mm in size, the skin was removed and the CypH-11 solution (2 μM in saline) was sprayed onto the tumor areas. […] The contrast continued to increase slightly and quickly reached plateau at ˜7 min. The tumor signal is about 150% higher than the adjacent muscle tissues, and the CypH-11 signal co-registered well with the RFP signal. […] In a separate set of experiment, animals were inoculated with two tumors. Each tumor was sprayed either with the prototype dye CypH-1 or CypH-11, and imaged simultaneously.

Compound | Solubility [1] [µM] | Ratio Intensity pH 5.0/7.5 [2] | Ratio Intensity pH 5.0/7.5 ([2]; listed as 11) | FL Intensity pH 5.0 [2] | FL Max (nm) pH 5.0 [2] [nm] | FL Intensity pH 7.5 [2] | FL Max (nm) pH 7.5 [2] [nm] | pKa [3] | normalized fluorescence relative to that of CypH-1 ([3]; at pH 6.0-6.5, in solution) | pH dependency of fluorescence [3] | Ex Coeff (M^−1cm^−1) @ Abs Max [4] | Abs. Max (nm) in EtOH [4] [nm] | time to contrast plateau ([5]; 2 μM in saline, sprayed) [min] | tumor signal higher than the adjacent muscle tissues ([5]; 2 μM in saline, sprayed) | time to fluorescent signal highlighting the tumor after spray ([5]; 2 μM in saline, sprayed, about 2 mm tumors) | tumor contrast after spray [5] | Ratio Intensity pH 5.0/7.5 ([2]; listed as 1)
CC(C)N(C)c1ccc(OC2=C(/C=C/C3=[N+](C(C)C)c4ccccc4C3(C)C)CCC/C2=C\C=C2\N(C(C)C)c3ccccc3C2(C)C)cc1.[I-] [CypH-11] | > 1000 | 112 | 111.7 | 5028 | 790 | 45 | 785 | 6 | about 3.4 fold | low fluorescence in neutral and basic solutions, but strong fluorescence in acidic solutions | 233,800 M^−1cm^−1 | 771 | ~7 | about 150% | within a minute | near instant signal enhancement | 
CN(C)c1ccc(OC2=C(/C=C/C3=[N+](C)c4ccccc4C3(C)C)CCC/C2=C\C=C2\N(C)c3ccccc3C2(C)C)cc1.[Cl-] [CypH-1, reference compound] | > 1000 | about 10 |  | 3363 | 787 | 334 | 782 | 4.7 |  | low fluorescence in neutral and basic solutions, but strong fluorescence in acidic solutions | 74,450 M^−1cm^−1 | 760 |  |  |  | minimally contrast | 10.1
